Assay results as given in patent US5397794A, “Use of thiazoloisoindolinone derivatives as antiviral medicaments” (Boehringer Mannheim GmbH, priority 1990, dated 1995).
pIC50: −log10 of the molar value.

System: not given
Assay: not given
Conditions: Hirsch, J. Infec. Dis. 157, 427-431 (1988); cited from earlier work
In the case of `Cc1cn([C@H]2C[C@H](N=[N+]=[N-])[C@@H](CO)O2)c(=O)[nH]c1=O` [AZT, 3'-azido-3'-desoxythymidine], the therapeutic range is given as “very narrow therapeutic range”.

Target: T1, HIV-RT (purified RT from HIV-1, expressed in E. coli) (Human immunodeficiency virus type 1 group M subtype B, UniProt P04585)
T1 construct: purified RT from HIV-1; made in house; host or cells: E. coli
Assay: Inhibition of HIV-1 reverse transcriptase (RT), [3H]-thymidine-5'-triphosphate incorporation
Type: biochemical
Conditions: purified recombinant HIV-1 RT; HIV-LTR in vitro transcript template, 18 mer primer
From the text: Inhibition of reverse transcriptase (RT) by 9b-phenyl-2,3-dihydrothiazolo[2,3-a]isoindol-5(9bH)-one.
The screening test system contains the purified RT from HIV-1, which was expressed by gene-technological methods in E. coli, as well as the components of the initiation complex, such as the in vitro transcripts of the HIV-LTR's with the neighbouring primer binding site as template and an 18 mer oligo-nucleotide as primer complementary to the primer binding site. The [^-3 H]-thymidine-5'-triphosphate incorporation was measured by counting in a β-counter.
In the case of `Cc1cn([C@H]2C[C@H](N=[N+]=[N-])[C@@H](CO[P@](=O)(O)O[P@](=O)(O)OP(=O)(O)O)O2)c(=O)[nH]c1=O` [AZT-TP, 3'-azido-3'-desoxythymidine-5'-triphosphate, reference compound], the pIC50 was 5.22. `O=C1c2ccccc2C2(c3ccc(Cl)cc3)SCCN12` (stereo not shown) [Example 3.2] showed a pIC50 of 5.40. Compound `O=C1c2ccccc2C2(c3ccc(Cl)c(Cl)c3)SCCN12` (stereo not shown) [Example 3.4] has a pIC50 of 5.40. Work on `Cc1cccc(C23SCCN2C(=O)c2ccccc23)c1C` (stereo not shown) [Example 3.8] yielded a pIC50 of 6.10. For `COc1cccc(C23SCCN2C(=O)c2ccccc23)c1` (stereo not shown) [Example 3.12], the pIC50 was 5.96. Compound `O=C1c2ccccc2C2(c3cccc(C(F)(F)F)c3)SCCN12` (stereo not shown) [Example 3.15] has a pIC50 of 6.00. For `Cc1ccc(C)c(C23SCCN2C(=O)c2ccccc23)c1` (stereo not shown) [Example 3.18], the pIC50 was 6.02. Work on `O=C1c2ccccc2C2(c3ccccc3)SCCN12` (stereo not shown) [Example 3.30, 9b-phenyl-2,3-dihydrothiazolo[2,3-a]isoindol-5(9bH)-one] yielded a pIC50 of 6.15. For `O=C1c2ccccc2C2(c3ccccc3)N1CCS2(=O)=O` (stereo not shown) [Example 4, 9b-Phenyl-2,3-dihydrothiazolo[2,3-a]isoindol-5(9bH)-one 1,1-dioxide], the pIC50 was 5.85.
